Biological target: T1, ERR1 (also known as ERR-α or ERR-1) (Homo sapiens, UniProt P11474)
T1 sequence (P11474 193-421 limits assumed): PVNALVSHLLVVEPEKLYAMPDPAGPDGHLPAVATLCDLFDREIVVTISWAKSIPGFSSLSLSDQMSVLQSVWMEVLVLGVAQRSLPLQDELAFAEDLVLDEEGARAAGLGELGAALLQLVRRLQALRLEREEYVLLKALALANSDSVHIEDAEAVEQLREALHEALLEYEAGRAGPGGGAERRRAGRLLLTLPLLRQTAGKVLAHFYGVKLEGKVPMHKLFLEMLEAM
Experiment: TR-FRET assay (disruption of co-activator peptide binding)
Format: biochemical
Conditions: 6His-tagged ERR1LBD, GST-hSRC2 co-activator peptide; average of 3 independent experiments
Protocol: Time-Resolved Fluorescence Resonance Energy Transfer (TR-FRET) experiments were performed to examine the functional response of ERR1 (also known as ERR-α or ERR-1) ligands. The TR-FRET assay described herein relied on the conformation of ERR1 for binding to a co-activator peptide: when a test compound binds to ERR1 and alters its conformation, it can disrupt the binding of the co-activator peptide. The components of this homogeneous secondary assay included: the ^6His-tagged-ERR1LBD, a GST-labeled-hSRC2 co-activator polypeptide and a fluorescent donor/acceptor pair from CIS bio international htrf/bioassays (Bedford, Mass.) using both an α-GST Europium Cryptate (Eu) label and an α^6His-XL665 (allophycocyanin) fluorophore.
For TR-FRET measurements, the reaction was buffered in 25 mM Tris pH 8, 2.5 mM Hepes, 20 mM KCl, 1 mM DTT, and 0.05 mg/mL BSA (-lipids). The final concentrations of reagents were 6 nM of ERR1LBD, 6 nM GST-SRC-2 peptide, 30 nM Eu cryptate, and 7.5 nM XL665. Reactions were allowed to reach equilibrium at 25° C. for 4-18 hours before collecting data on the Analyst from LJL Biosystems (Molecular Devices Sunnyvale, Calif.). As a time-resolved method, the samples were excited at […] and emission was collected for 1 ms at both 615 and 665 nm with delays of 400 and 75 μs, respectively. Dose response curves were fitted using a hyperbolic equation and the data reported is the average of 3 independent experiments.

Row | Compound | EC50 [nM]
1 | CN1CCC(N(C)C2=NC(=O)/C(=C/c3ccc4c(cnn4Cc4ccc(C(F)(F)F)cc4C(F)(F)F)c3)S2)C1 (stereo not shown) [Compound 29, 5-[1-(2,4-Bis-trifluoromethyl-benzyl)-1H-indazol-5-ylmethylene]-2-[methyl-(1-methyl-pyrrolidin-3-yl)-amino]-thiazol-4-one] | 67
2 | O=C1N=C(N(CCO)CCO)S/C1=C\c1ccc2c(cnn2Cc2ncc(C(F)(F)F)cc2Cl)c1 [Compound 12, 2-[Bis-(2-hydroxy-ethyl)-amino]-5-[1-(3-chloro-5-trifluoromethyl-pyridin-2-ylmethyl)-1H-indazol-5-ylmethylene]-thiazol-4-one] | 3900
3 | CN(C1=NC(=O)/C(=C/c2ccc3c(cnn3Cc3ccc(Cl)cc3C(F)(F)F)c2)S1)[C@H]1CCN(CC(N)=O)C[C@H]1F [Compound 55, 2-[(3R,4S)-4-{[-5-({1-[4-Chloro-2-(trifluoromethyl)benzyl]-1H-indazol-5-yl}methylidene)-4-oxo-4,5-dihydro-1,3-thiazol-2-yl](methyl)amino}-3-fluoropiperidin-1-yl]acetamide] | 13
4 | CN(C1=NC(=O)/C(=C/c2ccc3c(cnn3Cc3ccc(C(F)(F)F)cc3C(F)(F)F)c2)S1)C1CCNC1 (stereo not shown) [Compound 28, 5-[1-(2,4-Bis-trifluoromethyl-benzyl)-1H-indazol-5-ylmethylene]-2-(methyl-pyrrolidin-3-yl-amino)-thiazol-4-one] | 30
5 | CC(C(N)=O)N1CCC(N(C)C2=NC(=O)/C(=C/c3ccc4c(cnn4Cc4ccc(C(F)(F)F)cc4C(F)(F)F)c3)S2)CC1 (stereo not shown) [Compound 53, 2-(4-{[-5-({1-[2,4-Bis(trifluoromethyl)benzyl]-1H-indazol-5-yl}methylidene)-4-oxo-4,5-dihydro-1,3-thiazol-2-yl](methyl)amino}piperidin-1-yl)propionamide] | 24
6 | CN(CC(O)CO)C1=NC(=O)/C(=C/c2ccc3c(cnn3Cc3ncc(C(F)(F)F)cc3Cl)c2)S1 (stereo not shown) [Compound 11, 5-[1-(3-Chloro-5-trifluoromethyl-pyridin-2-ylmethyl)-1H-indazol-5-ylmethylene]-2-[(2,3-dihydroxy-propyl)-methyl-amino]-thiazol-4-one] | 1600
7 | COCCN(CCOC)C1=NC(=O)/C(=C/c2ccc3c(cnn3Cc3ncc(C(F)(F)F)cc3Cl)c2)S1 [Compound 10, 2-[Bis-(2-methoxy-ethyl)-amino]-5-[1-(3-chloro-5-trifluoromethyl-pyridin-2-ylmethyl)-1H-indazol-5-ylmethylene]-thiazol-4-one] | 800
8 | CN(C)CCN(C)C1=NC(=O)/C(=C/c2ccc3c(cnn3Cc3ccc(S(C)(=O)=O)cc3Cl)c2)S1 [Compound 7, 5-[1-(2-Chloro-4-methanesulfonyl-benzyl)-1H-indazol-5-ylmethylene]-2-[(2-dimethylamino-ethyl)-methyl-amino]-thiazol-4-one] | 830
9 | N#Cc1ccc(Cn2ncc3cc(/C=C4\SC(N(CCO)CCO)=NC4=O)ccc32)c(C(F)(F)F)c1 [Compound 3, 4-(5-{2-[Bis-(2-hydroxy-ethyl)-amino]-4-oxo-4H-thiazol-5-ylidenemethyl}-indazol-1-ylmethyl)-3-trifluoromethyl-benzonitrile] | 120
10 | COC[C@@H]1C[C@H](N(C)C2=NC(=O)/C(=C/c3ccc4c(cnn4Cc4ccc(Cl)cc4C(F)(F)F)c3)S2)CN1 (stereo in doubt) [Compound 41, 5-[1-(4-Chloro-2-trifluoromethyl-benzyl)-1H-indazol-5-ylmethylene]-2-[(5-methoxymethyl-pyrrolidin-3-yl)-methyl-amino]-thiazol-4-one] | 24
11 | CN(C1=NC(=O)/C(=C/c2ccc3c(cnn3Cc3ccc(C(F)(F)F)cc3C(F)(F)F)c2)S1)[C@@H]1CCN(CC(N)=O)C1 [Compound 56, 2-[(3R)-3-{[5-({1-[2,4-Bis(trifluoromethyl)benzyl]-1H-indazol-5-yl}methylidene)-4-oxo-4,5-dihydro-1,3-thiazol-2-yl](methyl)amino}pyrrolidin-1-yl]acetamide] | 15
12 | CN(CC(=O)O)C1=NC(=O)/C(=C/c2ccc3c(cnn3Cc3ccc(C(F)(F)F)cc3C(F)(F)F)c2)S1 [Compound 58, ({5-[1-(2,4-Bis-trifluoromethyl-benzyl)-1H-indazol-5-ylmethylene]-4-oxo-4,5-dihydro-thiazol-2-yl}-methyl-amino)-acetic acid] | 38
13 | CN(C1=NC(=O)/C(=C/c2ccc3c(cnn3Cc3ccc(C(F)(F)F)cc3C(F)(F)F)c2)S1)C1CCNCC1 [Compound 17, 5-[1-(2,4-Bis-trifluoromethyl-benzyl)-1H-indazol-5-ylmethylene]-2-(methyl-piperidin-4-yl-amino)-thiazol-4-one] | 37
14 | CCN(CC)CCN(C)C1=NC(=O)/C(=C/c2ccc3c(c2)c(I)nn3Cc2ccc(C(F)(F)F)cc2C(F)(F)F)S1 [Compound 51, 5-[1-(2,4-Bis-trifluoromethyl-benzyl)-3-iodo-1H-indazol-5-ylmethylene]-2-[(2-diethylamino-ethyl)-methyl-amino]-thiazol-4-one] | 11
15 | CONC(=O)[C@H]1C[C@H](N(C)C2=NC(=O)/C(=C/c3ccc4c(cnn4Cc4ccc(Cl)cc4C(F)(F)F)c3)S2)CN1 [Compound 60, 4-({5-[1-(4-Chloro-2-trifluoromethyl-benzyl)-1H-indazol-5-ylmethylene]-4-oxo-4,5-dihydro-thiazol-2-yl}-methyl-amino)-pyrrolidine-2-carboxylic acid methoxy-amide] | 25

The remaining lines, values ahead:

Row | EC50 [nM] | Compound
16 | 120 | CN(CC(O)CN)C1=NC(=O)/C(=C/c2ccc3c(cnn3Cc3ccc(Cl)cc3C(F)(F)F)c2)S1 (stereo not shown) [Compound 45, 2-[(3-Amino-2-hydroxy-propyl)-methyl-amino]-5-[1-(4-chloro-2-trifluoromethyl-benzyl)-1H-indazol-5-ylmethylene]-thiazol-4-one]
17 | 24 | CON(C)C1=NC(=O)/C(=C/c2ccc3c(cnn3Cc3ccc(Cl)cc3C(F)(F)F)c2)S1 [Compound 21, 5-[1-(4-Chloro-2-trifluoromethyl-benzyl)-1H-indazol-5-ylmethylene]-2-(methoxy-methyl-amino)-thiazol-4-one]
18 | 13 | CN(CC(=O)O)C1=NC(=O)/C(=C/c2ccc3c(cnn3Cc3ccc(Cl)cc3C(F)(F)F)c2)S1 [Compound 22, ({5-[1-(4-Chloro-2-trifluoromethyl-benzyl)-1H-indazol-5-ylmethylene]-4-oxo-4,5-dihydro-thiazol-2-yl}-methyl-amino)-acetic acid]
19 | 25 | C=CCN(C)C1=NC(=O)/C(=C/c2ccc3c(cnn3Cc3ccc(Cl)cc3C(F)(F)F)c2)S1 [Compound 39, 2-(Allyl-methyl-amino)-5-[1-(4-chloro-2-trifluoromethyl-benzyl)-1H-indazol-5-ylmethylene]-thiazol-4-one]
20 | 10 | O=C1N=C(N(CCO)CCO)S/C1=C\c1ccc2c(cnn2Cc2ccc(Cl)cc2C(F)(F)F)c1 [Compound 4, 2-[Bis-(2-hydroxy-ethyl)-amino]-5-[1-(4-chloro-2-trifluoromethyl-benzyl)-1H-indazol-5-ylmethylene]-thiazol-4-one]
21 | 21 | CN(C1=NC(=O)/C(=C/c2ccc3c(cnn3Cc3ccc(Cl)cc3C(F)(F)F)c2)S1)[C@H]1CCNC[C@H]1F [Compound 54, 5-({1-[4-Chloro-2-(trifluoromethyl)benzyl]-1H-indazol-5-yl}methylidene)-2-{[(3R,4S)-3-fluoropiperidin-4-yl](methyl)amino}-1,3-thiazol-4(5H)-one]
22 | 13 | CN(CCCn1cccn1)C1=NC(=O)/C(=C/c2ccc3c(cnn3Cc3ccc(Cl)cc3C(F)(F)F)c2)S1 [Compound 33, 5-[1-(4-Chloro-2-trifluoromethyl-benzyl)-1H-indazol-5-ylmethylene]-2-[methyl-(3-pyrazol-1-yl-propyl)-amino]-thiazol-4-one]
23 | 13 | CN(CCN1CCCC1)C1=NC(=O)/C(=C/c2ccc3c(cnn3Cc3ccc(Cl)cc3C(F)(F)F)c2)S1 [Compound 18, 5-[1-(4-Chloro-2-trifluoromethyl-benzyl)-1H-indazol-5-ylmethylene]-2-[methyl-(2-pyrrolidin-1-yl-ethyl)amino]-thiazol-4-one]
24 | 8.1 | CN1CCC(N(C)C2=NC(=O)/C(=C/c3ccc4c(cnn4Cc4ccc(Cl)cc4C(F)(F)F)c3)S2)CC1 [Compound 19, 5-[1-(4-Chloro-2-trifluoromethyl-benzyl)-1H-indazol-5-ylmethylene]-2-[methyl-(1-methyl-piperidin-4-yl)-amino]-thiazol-4-one]
25 | 15 | CCN(CC)CCN(C)C1=NC(=O)/C(=C/c2ccc3c(cnn3Cc3ccc(Cl)cc3C(F)(F)F)c2)S1 [Compound 32, 5-[1-(4-Chloro-2-trifluoromethyl-benzyl)-1H-indazol-5-ylmethylene]-2-[(2-diethylamino-ethyl)-methyl-amino]-thiazol-4-one]

Reference: patent US8426604B2 (Janssen Pharmaceutica NV, priority 2010, dated 2013)
